Molecules are shown by their SMILES. pIC50: −log10 of the molar value.

For data set [1], the system named is Influenza A virus. Put plainly: Antiviral activity against influenza A/Jifang/15/90 (H3N2) virus in MDCK cells by CPE assay. The class given is functional, organism-based.
In data set [2] the test system is Influenza A virus. Put plainly: Antiviral activity against influenza A/Yuefang/243/72 (H3N2) virus in MDCK cells by CPE assay. Type of data set: functional, organism-based.
Data set [3] deals with Influenza A virus. Put plainly: Antiviral activity against influenza A/Jingfang/262/95(H1N1) virus in MDCK cells by CPE assay. Type of data set: functional, organism-based.
In data set [4] the test system is Influenza B virus. Put plainly: Antiviral activity against influenza B/Sichuan/83/2000 virus in MDCK cells by CPE assay. The class given is functional, organism-based.
In data set [5] the test system is Influenza B virus. The data set can be described thus: Antiviral activity against influenza B/Jifang/13/97 virus in MDCK cells by CPE assay. Type of data set: functional, organism-based.
For data set [6], the system named is Influenza A virus. The data set can be described thus: Antiviral activity against influenza A/Hanfang/359/95 (H3N2) virus in MDCK cells by CPE assay. The class given is functional, organism-based.
Data set [7] has as its system Influenza B virus. The data set can be described thus: Antiviral activity against influenza B/Jingfang/76/98 in MDCK cells by CPE assay. Type of data set: functional, organism-based.
The subject of data set [8] is Mus musculus. Put plainly: Survival of mouse at 100 mg/kg, ip bid after 5 days. Type of data set: ADME, organism-based. The arrangement: dose 100 mg/kg, route intraperitoneal. Particulars: in vivo, 120 h; call rule not given here.
For data set [9], the system named is Influenza A virus. Put plainly: Antiviral activity against influenza A/Jingfang/Fm1 (H1N1) infected in mouse assessed as mean survival time of mouse at 100 mg/kg, ip bid after 2 hrs of viral infection for 5 days. The class given is functional. Particulars: route intraperitoneal.
Data set [10] deals with Mus musculus. The data set can be described thus: Weight change in mouse at 100 mg/kg, ip bid after 14 days. The settings on record: in vivo, 336 h. Type of data set: ADME, organism-based. More on the design: dose 100 mg/kg, route intraperitoneal.
The test system of data set [11] is Mus musculus. Put plainly: Weight change in mouse at 62.5 mg/kg, po bid after 14 days. The class given is ADME, organism-based. More on the design: dose 62.5 mg/kg, route oral. The settings on record: in vivo, 336 h.
Data set [12] has as its system Influenza A virus. The data set can be described thus: Antiviral activity against influenza A/Jingfang/Fm1 (H1N1) infected in mouse assessed as mean survival time of mouse at 31.25 mg/kg, po bid after 2 hrs of viral infection for 5 days. Type of data set: functional.
Data set [13] has as its system Influenza A virus. The data set can be described thus: Antiviral activity against influenza A/Jingfang/Fm1 (H1N1) infected in mouse assessed as survival of mouse at 62.5 mg/kg, ip bid after 2 hrs of viral infection for 5 days. The class given is functional. The settings on record: route intraperitoneal.
Data set [14] deals with Influenza A virus. Put plainly: Antiviral activity against influenza A/Jingfang/Fm1 (H1N1) virus infected in mouse assessed as survival of mouse at 125 mg/kg, po bid after 2 hrs of viral infection for 5 days. Type of data set: functional.
The subject of data set [15] is Influenza A virus. The data set can be described thus: Antiviral activity against influenza A/Jingfang/Fm1 (H1N1) infected in mouse assessed as survival of mouse at 31.25 mg/kg, po bid after 2 hrs of viral infection for 5 days. The class given is functional.
The test system of data set [16] is Mus musculus. Put plainly: Survival of mouse at 62.5 mg/kg, po bid after 5 days. The class given is ADME, organism-based. More on the design: dose 62.5 mg/kg, route oral. The settings on record: in vivo, 120 h.
Data set [17] relates to Mus musculus. Put plainly: Survival of mouse at 31.25 mg/kg, po bid after 5 days. Type of data set: ADME, organism-based. More on the design: dose 31.25 mg/kg, route oral. Particulars: in vivo, 120 h.
For data set [18], the system named is Influenza A virus. The data set can be described thus: Antiviral activity against influenza A/Jingfang/Fm1 (H1N1) infected in mouse assessed as survival of mouse at 62.5 mg/kg, po bid after 2 hrs of viral infection for 5 days. The class given is functional.
Data set [19] relates to Influenza A virus. The data set can be described thus: Antiviral activity against influenza A/Jingfang/Fm1 (H1N1) infected in mouse assessed as mean survival time of mouse at 62.5 mg/kg, po bid after 2 hrs of viral infection for 5 days. Type of data set: functional.
The test system of data set [20] is Mus musculus. Put plainly: Weight change in mouse at 62.5 mg/kg, ip bid after 14 days. The class given is ADME, organism-based. The settings on record: in vivo, 336 h. The arrangement: dose 62.5 mg/kg, route intraperitoneal.
Data set [21] deals with Mus musculus. The data set can be described thus: Survival of mouse at 62.5 mg/kg, ip bid after 5 days. Type of data set: ADME, organism-based. The arrangement: dose 62.5 mg/kg, route intraperitoneal. Particulars: in vivo, 120 h.
The subject of data set [22] is Mus musculus. Put plainly: Survival of mouse at 125 mg/kg, po bid after 5 days. Type of data set: ADME, organism-based. The arrangement: dose 125 mg/kg, route oral. Particulars: in vivo, 120 h.
Data set [23] deals with Influenza A virus. Put plainly: Antiviral activity against influenza A/Jingfang/Fm1 (H1N1) infected in mouse assessed as mean survival time of mouse at 62.5 mg/kg, ip bid after 2 hrs of viral infection for 5 days. Type of data set: functional. The settings on record: route intraperitoneal.
Data set [24] deals with Mus musculus. Put plainly: Weight change in mouse at 31.25 mg/kg, po bid after 14 days. The class given is ADME, organism-based. The arrangement: dose 31.25 mg/kg, route oral. Particulars: in vivo, 336 h.
For data set [25], the system named is Influenza A virus. Put plainly: Antiviral activity against influenza A/Jingfang/Fm1 (H1N1) infected in mouse assessed as mean survival time of mouse at 125 mg/kg, po bid after 2 hrs of viral infection for 5 days. Type of data set: functional.
In data set [26] the test system is Mus musculus. Put plainly: Weight change in mouse at 125 mg/kg, po bid after 14 days. The class given is ADME, organism-based. More on the design: dose 125 mg/kg, route oral. Particulars: in vivo, 336 h.

With `CCCCCCCCCCCCCCCCOCCCOC(=O)C1=C[C@H](NC(=N)N)[C@@H](NC(C)=O)[C@H]([C@H](O)[C@H](O)CO)O1`, the pIC50 in the data set with Influenza A virus [1] is 5.52; with Influenza A virus [2], 6.52; with Influenza A virus [3] (Influenza A virus, MDCK) it was 4.74; in the data set with Influenza B virus [4], 4.65; in the data set with Influenza B virus [5], 4.63; in the data set on Influenza A virus [6], 5.51. This compound also gave a negative-log IC50 (pIC50) with Influenza B virus [7] of 4.65.
As for `NC(=O)c1ncn([C@@H]2O[C@H](CO)[C@@H](O)[C@H]2O)n1` [RIBAVIRIN], the pIC50 in the data set with Influenza A virus [1] is 5.30; in the data set with Influenza A virus [2] it was 5.23; in the data set with Influenza A virus [3] (Influenza A virus, MDCK) it was 3.75; in the data set on Influenza B virus [4], 3.79; in the data set on Influenza B virus [5], 4.02; with Influenza A virus [6] it was 5.15. Further, the pIC50 in the data set on Influenza B virus [7] was 4.82. Further, the figures for the Activity result in the data set on Mus musculus [8], in the data set with Influenza A virus [9] and with Mus musculus [10] were “Active”, 14 days and 11.5 g, respectively.
On to `CCCCCCCCCCCCCCOCCCOC(=O)C1=C[C@H](NC(=N)N)[C@@H](NC(C)=O)[C@H]([C@H](O)[C@H](O)CO)O1`, for which the pIC50 was 5.60 in the data set with Influenza A virus [1]; 6.50 with Influenza A virus [2]; 4.72 in the data set on Influenza A virus [3] (Influenza A virus, MDCK); 4.42 in the data set with Influenza B virus [4]; 4.50 with Influenza B virus [5]; 5.97 with Influenza A virus [6]. For the same compound, the pIC50 in the data set on Influenza B virus [7] was 4.63.
Turning to `CC(=O)N[C@H]1[C@H]([C@H](O)[C@H](O)CO)OC(C(=O)O)=C[C@@H]1NC(=N)N` [ZANAMIVIR], the pIC50 was 6.33 with Influenza A virus [1]; 7.12 in the data set on Influenza A virus [2]; 4.78 in the data set with Influenza A virus [3] (mdck); 2.80 in the data set with Influenza B virus [4]; 6.41 in the data set on Influenza A virus [6]; 3.65 in the data set on Influenza B virus [7].
Take `CCCCCCCCCCCCCCCCCCOCCOC(=O)C1=C[C@H](NC(=N)N)[C@@H](NC(C)=O)[C@H]([C@H](O)[C@H](O)CO)O1`: the Activity was 13.5 g in the data set on Mus musculus [11]; 9.1 days in the data set with Influenza A virus [12]; “Active” with Mus musculus [16]; “Active” in the data set with Mus musculus [17]; 10.2 days in the data set with Influenza A virus [19]; 13.9 g with Mus musculus [20]. Besides, the Activity entry is “Active” with Mus musculus [21]; “Active” in the data set on Mus musculus [22]; 11.5 days in the data set on Influenza A virus [23]; 12.7 g in the data set on Mus musculus [24]; 11.2 days in the data set on Influenza A virus [25]; 12.5 g with Mus musculus [26]. The pIC50 in the data set on Influenza A virus [1] was 5.53; in the data set on Influenza A virus [2], 6.65; with Influenza A virus [3] (Influenza A virus, MDCK), 4.57; in the data set on Influenza B virus [4], 4.66; in the data set on Influenza B virus [5], 3.61; with Influenza A virus [6], 5.23. The same compound gave a pIC50 in the data set with Influenza B virus [7] of 4.18. Besides, the survival at 62.5 mg/kg in the data set with Influenza A virus [13] is 60%; in the data set on Influenza A virus [18], 40%. Moreover, the survival at 125 mg/kg with Influenza A virus [14] is 60%. In the data set on Influenza A virus [15], the survival at 31.25 mg/kg is 10%.

The term pIC50 denotes the negative decadic logarithm of the IC50, by convention in mol/L. A high value points to a low IC50.

Source of the values: ChEMBL document CHEMBL1149649, “Synthesis and anti-influenza activities of carboxyl alkoxyalkyl esters of 4-guanidino-Neu5Ac2en (zanamivir)” (Bioorg Med Chem Lett, 2007).
